Measurements reported in patent US11986452B2, “Methods of reducing the risk of heart failure” (Amarin Pharmaceuticals Ireland Limited, priority 2021, dated 2024).

How the values were obtained:
[1] = test system: statin-treated patients with established atherosclerosis or diabetes plus risk factor; test: Example 2: recurrent and total ischemic events analysis (Andersen-Gill, Wei-Lin-Weissfeld); type: in vivo, human; conditions: for Total key secondary endpoint events: HR vs placebo: without adjustment for stratification differences
Source text: The following study was a multi-center, placebo-controlled clinical trial the details of which are described above in Example 1, the REDUCE-IT design. […] Randomization was stratified by cardiovascular risk cohort (i.e., secondary or primary prevention), use of ezetimibe, and by geographic region.
The primary outcome for the study was total recurrent events consisting of the composite of cardiovascular death, nonfatal myocardial infarction, nonfatal stroke, coronary revascularization, or hospitalization for unstable angina. Recurrent event analyses were also performed for the key secondary endpoint, a composite of cardiovascular death, non-fatal myocardial infarction, or non-fatal stroke. For each of these composite endpoints, the effects of icosapent ethyl in the secondary and primary prevention strata were examined separately.
Demographic and baseline disease characteristics are presented using frequencies and percentages for categorical variables and medians with interquartile ranges for continuous variables. Between treatment group comparisons were derived using the chi-square test for categorical variables and Wilcoxon rank test for continuous variables. All clinical endpoint events used in the efficacy analyses were adjudicated by an independent Clinical Endpoint Committee (CEC) who were blinded to the treatment assignment. Since the primary efficacy endpoint was the time from randomization to the first occurrence of any component of the composite endpoint, and recurrence of such events within each patient is possible, a pre-specified analysis using a Cox proportional-hazard with the counting-process formulation of Andersen and Gill was performed to model the first and all recurrent cardiovascular events. Hazard ratios (HR) and corresponding 95% confidence intervals (CI) are reported from this model. In addition, as a marginal model and an extension of survival models based on the Cox proportional hazard model, the modified Wei-Lin-Weissfeld (WLW) method for analysis of recurrent events in the presence of deaths was carried out as a supportive analysis. In addition, as pre-specified, a recurrent event analysis using the Andersen-Gill and Wei-Lin-Weissfeld methods were carried out for the individual primary event components other than CV death. Though not pre-specified, additional recurrent event analyses were performed for the key secondary endpoint, which is a composite of CV death, non-fatal MI, or non-fatal stroke, and for the primary endpoint and the key secondary endpoint in the primary and secondary prevention strata to explore further the consistency of clinical benefit of icosapent ethyl. In subgroup analyses of the two cardiovascular risk strata (i.e., primary and secondary prevention), site-level discrepancies in cardiovascular risk group assignment occurring at entry and detected during the study (1.8%) were adjusted to conform with documented medical history data prior to randomization. All efficacy analyses were performed according to the intention-to-treat principle. All tests were based on a 2-sided nominal significance level of 5% with no adjustments for multiple comparisons.

[2] = test system: statin-treated patients with elevated triglycerides; test: Example 3: total (first and subsequent) ischemic events analysis (negative binomial, modified Wei-Lin-Weissfeld, Andersen-Gill, joint frailty); type: in vivo, human; conditions: for Adjusted HR, total events / Unadjusted HR, total events / Adjusted HR, first event / Adjusted HR, second event / Adjusted HR, third event / Unadjusted HR, first event / Unadjusted HR, second event / Unadjusted HR, third event / Adjusted RR, total events / Unadjusted RR, total events / HR, Cardiovascular Death / HR, Non-fatal Cardiovascular Event: vs placebo; for Adjusted HR, first event / Adjusted HR, second event / Adjusted HR, third event / Unadjusted HR, first event / Unadjusted HR, second event / Unadjusted HR, third event: modified WLW; for HR, Cardiovascular Death / HR, Non-fatal Cardiovascular Event: joint frailty model; for Fatal events, %: after reduction
Source text: The following study was a multi-center, placebo-controlled clinical trial the details of which are described above in Example 1, the REDUCE-IT design. […] The main outcomes were total primary composite endpoint events defined as cardiovascular death, nonfatal myocardial infarction, nonfatal stroke, coronary revascularization, or hospitalization for unstable angina and total key secondary composite endpoint events defined as cardiovascular death, nonfatal myocardial infarction, or nonfatal stroke. In the context of this study, total events refer to any first event as well as any subsequent event. Differences in total events were determined using other statistical models, including Andersen-Gill, Wei-Lin-Weissfeld (Li and Lagakos), both pre-specified, and a post hoc and joint-frailty analysis.
For the present prespecified analysis, the primary outcome was the total of first plus subsequent ischemic events consisting of the composite of cardiovascular death, nonfatal myocardial infarction, nonfatal stroke, coronary revascularization, or hospitalization for unstable angina. […] Exploratory analyses of the total of first and subsequent events were also performed for the key secondary composite endpoint.
Baseline characteristics were compared between treatment groups using the chi-squared test for categorical variables and the Wilcoxon rank sum test for continuous variables. There are several methods for analyzing first and subsequent (recurrent) event data. As a pre-specified statistical method, a negative binomial regression was used to calculate rates and rate ratios for total cardiovascular events, which accounts for the variability in each patient's risk of events. As pre-specified supportive analyses, the modified Wei-Lin-Weissfeld method (Li and Lagakos modification) was used to calculate hazard ratios (HRs) for the time to the first event, second event, or third event. An additional pre-specified analysis, the Andersen-Gill model using a Cox proportional-hazard with the counting-process formulation was performed to model the total events. In addition, in order to account for informative censoring due to cardiovascular death, the HR for total non-fatal events was calculated using a joint frailty model (See Rondeau V. Joint frailty models for recurring events and death using maximum penalized likelihood estimation: application on cancer events. Biostatistics. 2007; 8:708-21). The joint frailty model simultaneously estimates hazard functions for non-fatal and fatal CV events and takes into account the fact that patients who are prone to have nonfatal events have an elevated risk of a cardiovascular death. The application of the joint frailty model used a gamma distribution for the frailty term.
Statistical analyses using the full adjudicated endpoint events dataset without exclusions using this bundling approach were also determined.

[3] = key secondary composite endpoint, Andersen-Gill (I), full dataset
[4] = key secondary composite endpoint, Andersen-Gill (I), reduced dataset
[5] = key secondary composite endpoint, Andersen-Gill (II), full dataset
[6] = key secondary composite endpoint, Andersen-Gill (II), reduced dataset
[7] = key secondary composite endpoint, full dataset
[8] = key secondary composite endpoint, reduced dataset
[9] = key secondary composite endpoint, negative binomial, full dataset
[10] = key secondary composite endpoint, negative binomial, reduced dataset
[11] = key secondary endpoint, adjusted, reduced dataset
[12] = key secondary endpoint, unadjusted, reduced dataset
[13] = primary composite endpoint, Andersen-Gill (I), full dataset
[14] = primary composite endpoint, Andersen-Gill (I), reduced dataset
[15] = primary composite endpoint, Andersen-Gill (II), full dataset
[16] = primary composite endpoint, Andersen-Gill (II), reduced dataset
[17] = primary composite endpoint, full dataset
[18] = primary composite endpoint, reduced dataset
[19] = primary composite endpoint, negative binomial, full dataset
[20] = primary composite endpoint, negative binomial, reduced dataset
[21] = primary endpoint, adjusted, reduced dataset
[22] = primary endpoint, unadjusted, reduced dataset

With `CC/C=C\C/C=C\C/C=C\C/C=C\C/C=C\CCCC(=O)OCC` [icosapent ethyl, eicosapentaenoic acid ethyl ester] the “Total key secondary endpoint: HR vs placebo” value ([1]; primary prevention stratum) was 0.71, the “Total primary endpoint events: HR vs placebo” value ([1]; primary prevention stratum, adjusted stratification) was 0.79 and the “Total primary endpoint events: HR vs placebo” value ([1]; primary prevention stratum, without adjusting for stratification differences) was 0.86. The “Total key secondary endpoint events: HR vs placebo” value ([1]; primary prevention) was 0.78, the “Total key secondary endpoint: HR vs placebo” value ([1]; secondary prevention stratum) was 0.70 and the “Total primary endpoint events: HR vs placebo” value ([1]; secondary prevention stratum, adjusted stratification) was 0.66. For the same compound, the “Total primary endpoint events: HR vs placebo” value ([1]; secondary prevention stratum, without adjusting for stratification differences) was 0.65, the “Total key secondary endpoint events: HR vs placebo” value ([1]; secondary prevention stratum) was 0.69 and the “Total (first and subsequent) ischemic events for the primary composite endpoint: relative risk reduction” value ([2]; in vivo) was 30%. For the same compound, the “Adjusted HR, total events” value [2, 3] was 0.71, the “Unadjusted HR, total events” value [2, 3] was 0.71 and the “Adjusted HR, total events” value [2, 4] was 0.72. For the same compound, the “Unadjusted HR, total events” value [2, 4] was 0.72, the “Adjusted HR, total events” value [2, 5] was 0.71 and the “Unadjusted HR, total events” value [2, 5] was 0.71. For the same compound, the “Adjusted HR, total events” value [2, 6] was 0.72, the “Unadjusted HR, total events” value [2, 6] was 0.72 and the “Adjusted HR, first event” value [2, 7] was 0.74. The “Adjusted HR, second event” value [2, 7] was 0.75, the “Adjusted HR, third event” value [2, 7] was 0.79 and the “Unadjusted HR, first event” value [2, 7] was 0.74. For the same compound, the “Unadjusted HR, second event” value [2, 7] was 0.75, the “Unadjusted HR, third event” value [2, 7] was 0.79 and the “Adjusted HR, first event” value [2, 8] was 0.74. The “Adjusted HR, second event” value [2, 8] was 0.75, the “Adjusted HR, third event” value [2, 8] was 0.79 and the “Unadjusted HR, first event” value [2, 8] was 0.74. The “Unadjusted HR, second event” value [2, 8] was 0.75, the “Unadjusted HR, third event” value [2, 8] was 0.79 and the “Adjusted RR, total events” value [2, 9] was 0.71. The “Unadjusted RR, total events” value [2, 9] was 0.71, the “Adjusted RR, total events” value [2, 10] was 0.72 and the “Unadjusted RR, total events” value [2, 10] was 0.71. For the same compound, the “HR, Cardiovascular Death” value [2, 11] was 0.79, the “HR, Non-fatal Cardiovascular Event” value [2, 11] was 0.68 and the “Fatal events, %” value ([2]; key secondary endpoint) was 45.0%. For the same compound, the “Total events before reduction, %” value ([2]; key secondary endpoint, share of overall events) was 42.0%, the “HR, Cardiovascular Death” value [2, 12] was 0.79 and the “HR, Non-fatal Cardiovascular Event” value [2, 12] was 0.68. The “Total key secondary endpoint events: RR vs placebo” value ([2]; negative binomial) was 0.72, the “Adjusted HR, total events” value [2, 13] was 0.68 and the “Unadjusted HR, total events” value [2, 13] was 0.68. The “Adjusted HR, total events” value [2, 14] was 0.69, the “Unadjusted HR, total events” value [2, 14] was 0.69 and the “Adjusted HR, total events” value [2, 15] was 0.68. The “Unadjusted HR, total events” value [2, 15] was 0.68, the “Adjusted HR, total events” value [2, 16] was 0.69 and the “Unadjusted HR, total events” value [2, 16] was 0.69. For the same compound, the “Adjusted HR, first event” value [2, 17] was 0.75, the “Adjusted HR, second event” value [2, 17] was 0.68 and the “Adjusted HR, third event” value [2, 17] was 0.70. For the same compound, the “Unadjusted HR, first event” value [2, 17] was 0.76, the “Unadjusted HR, second event” value [2, 17] was 0.69 and the “Unadjusted HR, third event” value [2, 17] was 0.70. The “Adjusted HR, first event” value [2, 18] was 0.75, the “Adjusted HR, second event” value [2, 18] was 0.68 and the “Adjusted HR, third event” value [2, 18] was 0.69. For the same compound, the “Unadjusted HR, first event” value [2, 18] was 0.76, the “Unadjusted HR, second event” value [2, 18] was 0.69 and the “Unadjusted HR, third event” value [2, 18] was 0.69. For the same compound, the “Adjusted RR, total events” value [2, 19] was 0.69, the “Unadjusted RR, total events” value [2, 19] was 0.67 and the “Adjusted RR, total events” value [2, 20] was 0.70. The “Unadjusted RR, total events” value [2, 20] was 0.68, the “HR, Cardiovascular Death” value [2, 21] was 0.80 and the “HR, Non-fatal Cardiovascular Event” value [2, 21] was 0.67. For the same compound, the “Fatal events, %” value ([2]; primary endpoint) was 45.0%, the “Total events after reduction, %” value ([2]; primary endpoint, multiple endpoints in a single calendar day handled as a single event) was 41.0% and the “HR, Cardiovascular Death” value [2, 22] was 0.80. The “HR, Non-fatal Cardiovascular Event” value [2, 22] was 0.66.
